In ChEMBL document CHEMBL5046295 (J Med Chem, 2022):
Calls of active or inactive are those of the source. No cut-off for these calls is given here.

Tests used:
[1] = target: T1, Mu-type opioid receptor (Mus musculus, UniProt P42866)
[2] = test system: Mus musculus; test: Antinociceptive activity against Swiss Webster mouse model assessed as increase in tail withdrawal latency from warm water at 10 mg/kg, sc incubated for 5 mins followed by morphine addition and measured after 20 mins by warm water tail immersion assay; assay type: functional, organism-based
[3] = target: T1, Mu-type opioid receptor; test: Partial agonist activity at mouse mu opioid receptor expressed in CHO cell membranes incubated for 1.5 hrs by [35S]GTPgammaS binding based liquid scintillation counting method
[4] = test system: Mus musculus; test: Antinociceptive activity against Swiss Webster mouse model assessed as increase in tail withdrawal latency from warm water by measuring maximum possible effect at 10 mg/kg, sc measured after 20 min by warm water tail immersion assay; assay type: functional, organism-based
[5] = target: T2, Delta-type opioid receptor (Homo sapiens, UniProt P41143)
T2 sequence (P41143 whole entry): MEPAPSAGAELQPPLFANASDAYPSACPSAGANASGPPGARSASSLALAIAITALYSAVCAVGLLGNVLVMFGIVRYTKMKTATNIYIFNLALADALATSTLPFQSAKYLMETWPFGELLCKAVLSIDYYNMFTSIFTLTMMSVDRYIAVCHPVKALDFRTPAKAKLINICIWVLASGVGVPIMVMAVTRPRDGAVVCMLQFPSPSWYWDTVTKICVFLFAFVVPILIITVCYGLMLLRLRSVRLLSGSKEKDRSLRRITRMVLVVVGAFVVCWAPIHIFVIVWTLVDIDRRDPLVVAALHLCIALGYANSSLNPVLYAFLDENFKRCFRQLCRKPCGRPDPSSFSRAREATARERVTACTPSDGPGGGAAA
Description: Displacement of [3H]-diprenorphine from human delta opioid receptor expressed in CHO cell membranes assessed as inhibition constant incubated for 1.5 hrs by competitive binding assay

[6] = target: T3, Kappa-type opioid receptor (Mus musculus, UniProt P33534)
T3 sequence (P33534 whole entry): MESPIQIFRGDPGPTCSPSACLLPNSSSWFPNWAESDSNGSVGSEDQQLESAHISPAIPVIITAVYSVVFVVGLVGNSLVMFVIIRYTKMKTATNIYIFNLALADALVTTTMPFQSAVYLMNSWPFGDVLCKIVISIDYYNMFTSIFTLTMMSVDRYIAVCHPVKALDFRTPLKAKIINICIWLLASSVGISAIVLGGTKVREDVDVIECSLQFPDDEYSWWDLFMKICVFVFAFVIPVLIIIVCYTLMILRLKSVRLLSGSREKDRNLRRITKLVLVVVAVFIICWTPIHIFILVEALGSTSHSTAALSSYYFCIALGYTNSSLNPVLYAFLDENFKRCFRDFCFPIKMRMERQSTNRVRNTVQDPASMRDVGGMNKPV
Description: Displacement of [3H]-diprenorphine from mouse kappa opioid receptor expressed in CHO cell membranes assessed as inhibition constant incubated for 1.5 hrs by competitive binding assay

[7] = test system: Mus musculus; test: Anti-addiction activity in morphine pelleted Swiss Webster mouse assessed as escape jumps at 5 mg/kg, sc measured after 72 hrs; assay type: functional, organism-based
[8] = test system: Mus musculus; test: Anti-addiction activity in morphine pelleted Swiss Webster mouse assessed as wet dog shakes at 5 mg/kg, sc measured after 72 hrs; assay type: functional, organism-based
[9] = target: T2, Delta-type opioid receptor; test: biochemical
Description: Antagonist activity against human delta opioid receptor expressed in CHO cell membrane assessed as reduction in SNC80 induced [35S]GTPgammaS binding incubated for 1.5 hrs by liquid scintillation counting method

[10] = target: T3, Kappa-type opioid receptor; test: biochemical
Description: Antagonist activity at mouse kappa opioid receptor expressed in CHO cell membranes assessed as reduction in U50,488H induced [35S]GTPgammaS binding incubated for 1.5 hrs by liquid scintillation counting method

[11] = Solubility of the compound in DMSO; assay type: physicochemical
[12] = test system: Mus musculus; test: Anti-addiction activity in morphine pelleted Swiss Webster mouse assessed as paw tremors at 5 mg/kg, sc measured after 72 hrs; assay type: functional, organism-based

T1 sequence (P42866 whole entry): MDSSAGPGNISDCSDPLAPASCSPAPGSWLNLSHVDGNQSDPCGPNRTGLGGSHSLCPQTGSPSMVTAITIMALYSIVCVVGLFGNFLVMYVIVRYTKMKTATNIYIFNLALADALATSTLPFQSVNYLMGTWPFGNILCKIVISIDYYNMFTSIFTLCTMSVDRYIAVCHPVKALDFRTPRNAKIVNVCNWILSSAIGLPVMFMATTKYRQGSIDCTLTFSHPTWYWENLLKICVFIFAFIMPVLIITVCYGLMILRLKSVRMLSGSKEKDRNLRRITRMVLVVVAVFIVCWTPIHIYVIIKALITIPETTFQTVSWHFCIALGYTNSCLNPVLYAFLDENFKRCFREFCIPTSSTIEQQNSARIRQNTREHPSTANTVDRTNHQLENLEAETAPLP

In the case of O=C(N[C@H]1CC[C@@]2(O)[C@H]3Cc4ccc(O)c5c4[C@@]2(CCN3CC2CC2)[C@H]1O5)c1ccco1, the Ki [1] is reported as 0.53 nM, the Activity [2] is reported as “inactive” and the EC50 [3] is reported as 9.49 nM. The Activity [4] was “inactive”, the Ki [5] was 33.3 nM and the Ki [6] was 1.97 nM.

With O=C(Cc1cccs1)N[C@@H]1CC[C@@]2(O)[C@H]3Cc4ccc(O)c5c4[C@@]2(CCN3CC2CC2)[C@H]1O5 the Activity [2] was “inactive”, the Activity [4] was “inactive” and the Ki [5] was 64.9 nM.

In the case of O=C(N[C@H]1CC[C@@]2(O)[C@H]3Cc4ccc(O)c5c4[C@@]2(CCN3CC2CC2)[C@H]1O5)c1ccsc1, the Activity [2] is reported as “Active”, the Activity [7] is reported as “Active” and the Activity [4] is reported as “inactive”. The Activity [8] was “Active”.

For O=C(Cc1ccc[nH]1)N[C@@H]1CC[C@@]2(O)[C@H]3Cc4ccc(O)c5c4[C@@]2(CCN3CC2CC2)[C@H]1O5, the Ki [1] was 0.16 nM, the EC50 [3] was 0.8 nM and the Activity [4] was “Active”. The Ki [5] was 24.3 nM and the Ki [6] was 1.35 nM.

For O=C(CCc1cccs1)N[C@@H]1CC[C@@]2(O)[C@H]3Cc4ccc(O)c5c4[C@@]2(CCN3CC2CC2)[C@H]1O5, the Activity [4] was “Active”.

With O=C(CCc1cccs1)N[C@H]1CC[C@@]2(O)[C@H]3Cc4ccc(O)c5c4[C@@]2(CCN3CC2CC2)[C@H]1O5 the Ki [1] was 0.48 nM, the Activity [2] was “inactive” and the EC50 [3] was 3.06 nM. For the same compound, the Activity [4] was “inactive”, the Ki [5] was 2.25 nM and the Ki [6] was 1.76 nM.

In the case of O=C(Cc1ccco1)N[C@H]1CC[C@@]2(O)[C@H]3Cc4ccc(O)c5c4[C@@]2(CCN3CC2CC2)[C@H]1O5, the Ki [1] is reported as 0.59 nM, the Activity [2] is reported as “Active” and the EC50 [3] is reported as 2.74 nM. The EC50 [9] was 6.2 nM, the Activity [4] was “inactive” and the Ki [5] was 4.61 nM. For the same compound, the EC50 [10] was 85.4 nM and the Ki [6] was 6.67 nM.

With O=C(N[C@@H]1CC[C@@]2(O)[C@H]3Cc4ccc(O)c5c4[C@@]2(CCN3CC2CC2)[C@H]1O5)c1ccoc1 the Ki [1] was 8.47 nM, the EC50 [3] was 35 nM and the Activity [4] was “Active”. For the same compound, the Ki [5] was 1980 nM and the Ki [6] was 29.4 nM.

With O=C(CCc1ccco1)N[C@H]1CC[C@@]2(O)[C@H]3Cc4ccc(O)c5c4[C@@]2(CCN3CC2CC2)[C@H]1O5 the Activity [2] was “inactive” and the Activity [4] was “inactive”.

In the case of O=C(N[C@@H]1CC[C@@]2(O)[C@H]3Cc4ccc(O)c5c4[C@@]2(CCN3CC2CC2)[C@H]1O5)c1ccsc1, the Activity [2] is reported as “Active” and the Activity [4] is reported as “inactive”.

In the case of O=C(CCc1ccc[nH]1)N[C@H]1CC[C@@]2(O)[C@H]3Cc4ccc(O)c5c4[C@@]2(CCN3CC2CC2)[C@H]1O5, the Ki [1] is reported as 0.58 nM, the Activity [2] is reported as “inactive” and the EC50 [3] is reported as 3.79 nM. For the same compound, the Activity [4] was “inactive”, the Ki [5] was 7.58 nM and the Ki [6] was 0.54 nM.

For O=C(Cc1ccoc1)N[C@H]1CC[C@@]2(O)[C@H]3Cc4ccc(O)c5c4[C@@]2(CCN3CC2CC2)[C@H]1O5, the Ki [1] was 0.42 nM, the Activity [2] was “inactive” and the EC50 [3] was 8.32 nM. For the same compound, the Activity [4] was “inactive”, the Ki [5] was 3.74 nM and the Ki [6] was 6.45 nM.

For O=C(CCc1ccsc1)N[C@@H]1CC[C@@]2(O)[C@H]3Cc4ccc(O)c5c4[C@@]2(CCN3CC2CC2)[C@H]1O5, the Activity [4] was “Active”.

For O=C(N[C@@H]1CC[C@@]2(O)[C@H]3Cc4ccc(O)c5c4[C@@]2(CCN3CC2CC2)[C@H]1O5)c1ccc[nH]1, the Activity [2] was “inactive” and the Activity [4] was “inactive”.

With O=C(Cc1ccc[nH]1)N[C@H]1CC[C@@]2(O)[C@H]3Cc4ccc(O)c5c4[C@@]2(CCN3CC2CC2)[C@H]1O5 the Ki [1] was 0.46 nM, the Activity [2] was “inactive” and the EC50 [3] was 4.18 nM. For the same compound, the Activity [4] was “inactive”, the Ki [5] was 3.85 nM and the Ki [6] was 2.88 nM.

In the case of O=C(CCc1cc[nH]c1)N[C@H]1CC[C@@]2(O)[C@H]3Cc4ccc(O)c5c4[C@@]2(CCN3CC2CC2)[C@H]1O5, the Ki [1] is reported as 0.7 nM, the Activity [2] is reported as “Active” and the EC50 [3] is reported as 3.86 nM. The Activity [4] was “inactive”, the Ki [5] was 8.62 nM and the Ki [6] was 0.59 nM. The solubility [11] was “Insoluble”.

With O=C(Cc1ccco1)N[C@@H]1CC[C@@]2(O)[C@H]3Cc4ccc(O)c5c4[C@@]2(CCN3CC2CC2)[C@H]1O5 the Ki [1] was 0.23 nM, the Activity [2] was “Active” and the EC50 [3] was 0.97 nM. The EC50 [9] was 42.3 nM, the Activity [4] was “inactive” and the Ki [5] was 45.6 nM. The EC50 [10] was 13.3 nM and the Ki [6] was 3.38 nM.

In the case of O=C(CCc1cc[nH]c1)N[C@@H]1CC[C@@]2(O)[C@H]3Cc4ccc(O)c5c4[C@@]2(CCN3CC2CC2)[C@H]1O5, the Ki [1] is reported as 0.41 nM, the Activity [2] is reported as “inactive” and the EC50 [3] is reported as 1.6 nM. For the same compound, the Activity [4] was “inactive”, the Ki [5] was 67.5 nM and the Ki [6] was 2.72 nM.

With O=C(N[C@H]1CC[C@@]2(O)[C@H]3Cc4ccc(O)c5c4[C@@]2(CCN3CC2CC2)[C@H]1O5)c1ccoc1 the Ki [1] was 0.5 nM, the EC50 [3] was 7.63 nM and the Activity [4] was “Active”. The Ki [5] was 28.6 nM and the Ki [6] was 2.14 nM.

For O=C(CCc1ccoc1)N[C@H]1CC[C@@]2(O)[C@H]3Cc4ccc(O)c5c4[C@@]2(CCN3CC2CC2)[C@H]1O5, the Activity [2] was “inactive”, the EC50 [3] was 2.31 nM and the Activity [4] was “inactive”.

In the case of O=C(CCc1ccco1)N[C@@H]1CC[C@@]2(O)[C@H]3Cc4ccc(O)c5c4[C@@]2(CCN3CC2CC2)[C@H]1O5, the Activity [2] is reported as “inactive” and the Activity [4] is reported as “inactive”.

For O=C(Cc1cc[nH]c1)N[C@H]1CC[C@@]2(O)[C@H]3Cc4ccc(O)c5c4[C@@]2(CCN3CC2CC2)[C@H]1O5, the Ki [1] was 3.62 nM, the Activity [2] was “inactive” and the EC50 [3] was 51.4 nM. The Activity [4] was “inactive”, the Ki [5] was 14.4 nM and the Ki [6] was 19 nM.

For O=C(Cc1ccsc1)N[C@H]1CC[C@@]2(O)[C@H]3Cc4ccc(O)c5c4[C@@]2(CCN3CC2CC2)[C@H]1O5, the Ki [1] was 0.23 nM, the Activity [2] was “inactive” and the EC50 [3] was 1.21 nM. The Activity [4] was “inactive”, the Ki [5] was 39.4 nM and the Ki [6] was 0.65 nM.

In the case of O=C(N[C@@H]1CC[C@@]2(O)[C@H]3Cc4ccc(O)c5c4[C@@]2(CCN3CC2CC2)[C@H]1O5)c1cc[nH]c1, the Ki [1] is reported as 0.36 nM, the EC50 [3] is reported as 2.03 nM and the Activity [4] is reported as “Active”. For the same compound, the Ki [5] was 107 nM and the Ki [6] was 4.51 nM.

With O=C(CCc1ccc[nH]1)N[C@@H]1CC[C@@]2(O)[C@H]3Cc4ccc(O)c5c4[C@@]2(CCN3CC2CC2)[C@H]1O5 the Ki [1] was 0.52 nM, the EC50 [3] was 1.22 nM and the Activity [4] was “Active”. It also gave a Ki [5] of 36.7 nM and a Ki [6] of 1.25 nM.

For O=C(Cc1ccsc1)N[C@@H]1CC[C@@]2(O)[C@H]3Cc4ccc(O)c5c4[C@@]2(CCN3CC2CC2)[C@H]1O5, the Ki [1] was 0.2 nM, the Activity [2] was “inactive” and the EC50 [3] was 3.24 nM. The Activity [4] was “inactive”, the Ki [5] was 36.1 nM and the Ki [6] was 1.31 nM.

With O=C(CCc1ccoc1)N[C@@H]1CC[C@@]2(O)[C@H]3Cc4ccc(O)c5c4[C@@]2(CCN3CC2CC2)[C@H]1O5 the Activity [2] was “inactive”, the EC50 [3] was 0.63 nM and the Activity [4] was “inactive”.

In the case of O=C(N[C@H]1CC[C@@]2(O)[C@H]3Cc4ccc(O)c5c4[C@@]2(CCN3CC2CC2)[C@H]1O5)c1cc[nH]c1, the Ki [1] is reported as 1.31 nM, the Activity [2] is reported as “inactive” and the EC50 [3] is reported as 2.21 nM. For the same compound, the Activity [4] was “inactive”, the Ki [5] was 40.4 nM and the Ki [6] was 2.78 nM.

In the case of O=C(CCc1ccsc1)N[C@H]1CC[C@@]2(O)[C@H]3Cc4ccc(O)c5c4[C@@]2(CCN3CC2CC2)[C@H]1O5, the Activity [2] is reported as “inactive” and the Activity [4] is reported as “inactive”.

In the case of O=C(Cc1cccs1)N[C@H]1CC[C@@]2(O)[C@H]3Cc4ccc(O)c5c4[C@@]2(CCN3CC2CC2)[C@H]1O5, the Activity [2] is reported as “inactive” and the Activity [4] is reported as “inactive”.

For O=C(Cc1ccoc1)N[C@@H]1CC[C@@]2(O)[C@H]3Cc4ccc(O)c5c4[C@@]2(CCN3CC2CC2)[C@H]1O5, the Ki [1] was 0.22 nM, the Activity [2] was “inactive” and the EC50 [3] was 0.91 nM. The Activity [4] was “inactive”, the Ki [5] was 73 nM and the Ki [6] was 3.68 nM.

In the case of O=C(Cc1cc[nH]c1)N[C@@H]1CC[C@@]2(O)[C@H]3Cc4ccc(O)c5c4[C@@]2(CCN3CC2CC2)[C@H]1O5, the Ki [1] is reported as 0.28 nM, the Activity [2] is reported as “inactive” and the EC50 [3] is reported as 1.18 nM. For the same compound, the Activity [4] was “inactive”, the Ki [5] was 37.8 nM and the Ki [6] was 4.19 nM.

In the case of O=C(N[C@@H]1CC[C@@]2(O)[C@H]3Cc4ccc(O)c5c4[C@@]2(CCN3CC2CC2)[C@H]1O5)c1ccco1, the Ki [1] is reported as 0.3 nM, the Activity [2] is reported as “Active” and the EC50 [3] is reported as 0.98 nM. For the same compound, the EC50 [9] was 35.5 nM, the Activity [4] was “inactive” and the Ki [5] was 84.7 nM. It also gave an EC50 [10] of 6.3 nM and a Ki [6] of 1.29 nM.

For O=C(N[C@@H]1CC[C@@]2(O)[C@H]3Cc4ccc(O)c5c4[C@@]2(CCN3CC2CC2)[C@H]1O5)c1cccs1, the Activity [2] was “Active” and the Activity [4] was “inactive”.

With O=C(N[C@H]1CC[C@@]2(O)[C@H]3Cc4ccc(O)c5c4[C@@]2(CCN3CC2CC2)[C@H]1O5)c1ccc[nH]1 the Activity [2] was “Active” and the Activity [4] was “inactive”.

With O=C(N[C@H]1CC[C@@]2(O)[C@H]3Cc4ccc(O)c5c4[C@@]2(CCN3CC2CC2)[C@H]1O5)c1cccs1 the Activity [2] was “Active”, the Activity [7] was “Active” and the Activity [4] was “inactive”. For the same compound, the Activity [12] was “Active” and the Activity [8] was “Active”.
